Data published in patent US20210337789A1, “Derivatives of m-Guaiacol, Their Preparation and Their Uses” (Universite de Caen Normandie, priority 2018, published 2021).
Like-named read-outs stand apart in the source and are kept apart here.

Key:
[1] = tested on: E. coli strains presenting high levels of resistance; assay: Bacterial growth on E. coli strains presenting high levels of resistance; assay type: cell-based, Escherichia coli; parameters: key to Effects (0 < 1 < 2 < 3): 0 = no effect; 1 = pure only; 2 = several concs; 3 = strong at each; conditions: for Effects (0 < 1 < 2 < 3): molecules at 1, 0.5 and 0.1 mg/ml, triclosan at 0.1 mg/ml
Procedure: (§1) The bacterial growth is evaluated by measuring the optical density (DO) at 600 nm using NanoDrop.
(§2) This ratio permits a classification of the molecules in 4 effect levels: • 0=no effect observed; • 1=effect observed only when the molecule is tested pure; • 2=effect observed at several concentrations, but which gradually decreases the dilutions; • 3=strong effect observed at each concentration of molecule tested.
(§3) Compounds of the invention were tested on 4 strains of E. coli, 3 strains of K. pneumoniae and 4 strains of S. aureus with the resistance profiles below.

[2] = tested on: K. pneumoniae strains presenting high levels of resistance; assay: Bacterial growth on K. pneumoniae strains presenting high levels of resistance; assay type: cell-based, Klebsiella pneumoniae; parameters: key to Effects (0 < 1 < 2 < 3): 0 = no effect; 1 = pure only; 2 = several concs; 3 = strong at each; conditions: for Effects (0 < 1 < 2 < 3): molecules at 1, 0.5 and 0.1 mg/ml, triclosan at 0.1 mg/ml
Procedure: as §1, §2, §3

[3] = tested on: KB cells (epidermoid carcinoma); assay: In vitro cytotoxicity, cell proliferation test (MTS) on KB cells; assay type: cell-based; conditions: Homo sapiens, read-out: percentage of inhibition of cell growth
Procedure: The human cell strain KB (epidermoid carcinoma) was obtained from the NCI (National Cancer Institute) and cultivated in the D-MEM medium added with 10% of foetal bovine serum (Invitrogen) in the presence of penicillin, streptomycin and fungizone in flasks of […] under CO2 at 5%. The cells were deposited on tissue culture microplates with 96 wells and a density of 650 cells/well in 200 μl of medium and treated 24 hours later with compounds of the invention dissolved in DMSO at concentrations going from 0.5 nM to 10 μM using a Biomek 3000 (Beckman-Coulter) automaton. The controls received the same volume of DMSO (1% of final volume). After 72 hours of exposure, the MTS reagent (Celltiter 96Aqueous One solution, Promega) was added and incubated for 3 hours at 37° C.: the absorbance was measured at 490 nm and the results of inhibition of the cell proliferation were calculated according to the ratio [(1−(OD490treated/OD490control))×100].
Results: Cytotoxicity at 10^−5 and 10^−6M on Triplicate KB Cells, Measured after 72 Hours of Exposure.
The percentage of inhibition of cell growth with respect to the cells receiving the same quantity of DMSO is outlined in the table below.

[4] = tested on: S. aureus strains presenting high levels of resistance; assay: Bacterial growth on S. aureus strains presenting high levels of resistance; assay type: cell-based, Staphylococcus aureus; parameters: key to Effects (0 < 1 < 2 < 3): 0 = no effect; 1 = pure only; 2 = several concs; 3 = strong at each; conditions: for Effects (0 < 1 < 2 < 3): molecules at 1, 0.5 and 0.1 mg/ml, triclosan at 0.1 mg/ml
Procedure: as §1, §2, §3

[5] = tested on: Escherichia coli; assay: Bacterial growth screening on wild-type phenotype strain, E. coli; assay type: cell-based
Procedure: as §1, §2
(§4) A screening of molecules of the invention on several wild-type phenotype strains has been carried out.
(§5) The strains initially selected are: • Gram+: Streptococcus equi subsp zooepidemicus and Staphylococcus aureus • Gram−: Escherichia coli, Klebsiella pneumoniae and Stenotrophomonas maltophila.

[6] = tested on: Micrococcus luteus reference strain; assay: Bacterial growth (optical density at 600 nm) on Micrococcus luteus reference strain; assay type: cell-based; parameters: key: 0 = no effect, 1 = pure only, 2 = several concentrations, 3 = strong at all; conditions: in DMSO diluted in PBS, compared with triclosan
Procedure: as §1, §2
The molecules are put in a solution in DMSO and diluted in PBS.

[7] = tested on: Klebsiella pneumoniae; assay: Bacterial growth screening on wild-type phenotype strain, K. pneumoniae; assay type: cell-based
Procedure: as §1, §2, §4, §5

[8] = tested on: Staphylococcus aureus; assay: Bacterial growth screening on wild-type phenotype strain, S. aureus; assay type: cell-based
Procedure: as §1, §2, §4, §5

[9] = tested on: Streptococcus equi subsp zooepidemicus; assay: Bacterial growth screening on wild-type phenotype strain, S. zooepidemicus; assay type: cell-based
Procedure: as §1, §2, §4, §5

[10] = tested on: Stenotrophomonas maltophila; assay: Bacterial growth screening on wild-type phenotype strain, S. maltophila; assay type: cell-based
Procedure: as §1, §2, §4, §5

[11] = K. pneumoniae Strain 1, 0.1 mg/ml
[12] = K. pneumoniae Strain 2, 0.1 mg/ml
[13] = K. pneumoniae Strain 3, 0.1 mg/ml
[14] = 10^−5 M, KB cells, triplicate, 72 hours of exposure, with respect to DMSO control
[15] = 10^−6 M, KB cells, triplicate, 72 hours of exposure, with respect to DMSO control

Oc1cc(Cl)ccc1Oc1ccc(Cl)cc1Cl [Triclosan, reference compound]
Δ DO ([1]; E. coli Strain 1, 0.1 mg/ml): 1.005 | Effects (0 < 1 < 2 < 3) ([1]; E. coli Strain 1): 3 | Δ DO ([1]; E. coli Strain 2, 0.1 mg/ml): 1.197 | Effects (0 < 1 < 2 < 3) ([1]; E. coli Strain 2): 3 | Δ DO ([1]; E. coli Strain 3, 0.1 mg/ml): 0.948 | Effects (0 < 1 < 2 < 3) ([1]; E. coli Strain 3): 3 | Δ DO ([1]; E. coli Strain 4, 0.1 mg/ml): 1.080 | Effects (0 < 1 < 2 < 3) ([1]; E. coli Strain 4): 3 | Δ DO [2, 11]: 0.824 | Effects (0 < 1 < 2 < 3) ([2]; K. pneumoniae Strain 1): 3 | Δ DO [2, 12]: 0.893 | Effects (0 < 1 < 2 < 3) ([2]; K. pneumoniae Strain 2): 3 | Δ DO [2, 13]: 1.092 | Effects (0 < 1 < 2 < 3) ([2]; K. pneumoniae Strain 3): 3 | inhibition at 1 µM ([3]; KB, 72 h): 5 ± 12% | inhibition at 10 µM ([3]; KB, 72 h): 78 ± 3% | Δ DO ([4]; S. aureus Strain 1, 0.1 mg/ml): 0.441 | Effects (0 < 1 < 2 < 3) ([4]; S. aureus Strain 1): 3 | Δ DO ([4]; S. aureus Strain 2, 0.1 mg/ml): 0.459 | Effects (0 < 1 < 2 < 3) ([4]; S. aureus Strain 2): 3 | Δ DO ([4]; S. aureus Strain 3, 0.1 mg/ml): 0.532 | Effects (0 < 1 < 2 < 3) ([4]; S. aureus Strain 3): 3 | Δ DO ([4]; S. aureus Strain 4, 0.1 mg/ml): 0.490 | Effects (0 < 1 < 2 < 3) ([4]; S. aureus Strain 4): 3

COc1cc(O)c(F)cc1Cl [sr7580]
inhibition at 10 µM [3, 14]: 16 ± 4% | inhibition at 1 µM [3, 15]: 5 ± 8%

COc1cc(O)c(Cl)cc1F [sr7581]
inhibition at 10 µM [3, 14]: 0% | inhibition at 1 µM [3, 15]: 0%

COc1cc(O)c(Br)cc1Br [sr7582]
inhibition at 1 µM ([3]; KB, 72 h): 0% | inhibition at 10 µM ([3]; KB, 72 h): 1 ± 7%

COc1cc(O)c(Cl)cc1Br [sr7583]
Effect level, E. coli [5]: 2 | Effect level [6]: 3 | Effect level, K. pneumoniae [7]: 2 | inhibition at 10 µM [3, 14]: 0% | inhibition at 1 µM [3, 15]: 0%

COc1cc(O)c(I)cc1I [sr7584]
Effect level [6]: 2 | inhibition at 1 µM ([3]; KB, 72 h): 0% | inhibition at 10 µM ([3]; KB, 72 h): 0%

COc1cc(O)c(Cl)c(Cl)c1Cl [sr7585]
Effect level, S. aureus [8]: 3 | Δ DO ([1]; E. coli Strain 1, 0.1 mg/ml): 0.196 | Δ DO ([1]; E. coli Strain 1, 0.5 mg/ml): 0.746 | Δ DO ([1]; E. coli Strain 1, 1 mg/ml): 0.920 | Effects (0 < 1 < 2 < 3) ([1]; E. coli Strain 1): 3 | Δ DO ([1]; E. coli Strain 2, 0.1 mg/ml): 0.313 | Δ DO ([1]; E. coli Strain 2, 0.5 mg/ml): 0.964 | Δ DO ([1]; E. coli Strain 2, 1 mg/ml): 1.097 | Effects (0 < 1 < 2 < 3) ([1]; E. coli Strain 2): 3 | Δ DO ([1]; E. coli Strain 3, 0.1 mg/ml): 0.186 | Δ DO ([1]; E. coli Strain 3, 0.5 mg/ml): 0.736 | Δ DO ([1]; E. coli Strain 3, 1 mg/ml): 0.893 | Effects (0 < 1 < 2 < 3) ([1]; E. coli Strain 3): 3 | Δ DO ([1]; E. coli Strain 4, 0.1 mg/ml): 0.322 | Δ DO ([1]; E. coli Strain 4, 0.5 mg/ml): 0.848 | Δ DO ([1]; E. coli Strain 4, 1 mg/ml): 0.979 | Effects (0 < 1 < 2 < 3) ([1]; E. coli Strain 4): 3 | Δ DO [2, 11]: 0.251 | Δ DO ([2]; K. pneumoniae Strain 1, 0.5 mg/ml): 0.595 | Δ DO ([2]; K. pneumoniae Strain 1, 1 mg/ml): 0.644 | Effects (0 < 1 < 2 < 3) ([2]; K. pneumoniae Strain 1): 3 | Δ DO [2, 12]: 0.035 | Δ DO ([2]; K. pneumoniae Strain 2, 0.5 mg/ml): 0.620 | Δ DO ([2]; K. pneumoniae Strain 2, 1 mg/ml): 0.701 | Effects (0 < 1 < 2 < 3) ([2]; K. pneumoniae Strain 2): 2 | Δ DO [2, 13]: 0.265 | Δ DO ([2]; K. pneumoniae Strain 3, 0.5 mg/ml): 0.683 | Δ DO ([2]; K. pneumoniae Strain 3, 1 mg/ml): 0.872 | Effects (0 < 1 < 2 < 3) ([2]; K. pneumoniae Strain 3): 2 | Effect level, S. zooepidemicus [9]: 3 | Effect level, E. coli [5]: 3 | Effect level [6]: 3 | Effect level, K. pneumoniae [7]: 2 | inhibition at 10 µM [3, 14]: 0% | inhibition at 1 µM [3, 15]: 0% | Effect level, S. maltophila [10]: 2 | Δ DO ([4]; S. aureus Strain 1, 0.1 mg/ml): 0.352 | Δ DO ([4]; S. aureus Strain 1, 0.5 mg/ml): 0.445 | Δ DO ([4]; S. aureus Strain 1, 1 mg/ml): 0.445 | Effects (0 < 1 < 2 < 3) ([4]; S. aureus Strain 1): 3 | Δ DO ([4]; S. aureus Strain 2, 0.1 mg/ml): 0.385 | Δ DO ([4]; S. aureus Strain 2, 0.5 mg/ml): 0.458 | Δ DO ([4]; S. aureus Strain 2, 1 mg/ml): 0.457 | Effects (0 < 1 < 2 < 3) ([4]; S. aureus Strain 2): 3 | Δ DO ([4]; S. aureus Strain 3, 0.1 mg/ml): 0.459 | Δ DO ([4]; S. aureus Strain 3, 0.5 mg/ml): 0.529 | Δ DO ([4]; S. aureus Strain 3, 1 mg/ml): 0.530 | Effects (0 < 1 < 2 < 3) ([4]; S. aureus Strain 3): 3 | Δ DO ([4]; S. aureus Strain 4, 0.1 mg/ml): 0.405 | Δ DO ([4]; S. aureus Strain 4, 0.5 mg/ml): 0.491 | Δ DO ([4]; S. aureus Strain 4, 1 mg/ml): 0.486 | Effects (0 < 1 < 2 < 3) ([4]; S. aureus Strain 4): 3

COc1c(Cl)cc(Cl)c(O)c1Cl [sr7586]
inhibition at 10 µM [3, 14]: 0% | inhibition at 1 µM [3, 15]: 6 ± 8%

COc1c(Cl)c(O)c(Cl)c(F)c1Cl [sr7587]
inhibition at 10 µM [3, 14]: 0% | inhibition at 1 µM [3, 15]: 8 ± 4%

COc1c(Cl)cc(Cl)c(O)c1C [sr7607]
Effect level [6]: 2 | inhibition at 10 µM [3, 14]: 0% | inhibition at 1 µM [3, 15]: 0%

COc1cc(O)c(Cl)c(C)c1Cl [sr7608]
Effect level [6]: 2 | inhibition at 10 µM [3, 14]: 7 ± 11% | inhibition at 1 µM [3, 15]: 0%

COc1cc(O)c(Cl)c(Br)c1 [sr7609]
Effect level, S. aureus [8]: 2 | Effect level, E. coli [5]: 2 | Effect level [6]: 3 | Effect level, K. pneumoniae [7]: 2 | Effect level, S. maltophila [10]: 2

COc1cc(O)c(Cl)c(F)c1F [sr7610]
Effect level [6]: 2

COc1cc(O)c(Br)c(F)c1F [sr7611]
Effect level [6]: 2

COc1cc(O)c(I)c(F)c1F [sr7612]
Effect level [6]: 2

COc1cc(O)c(Cl)c(Br)c1F [sr7614]
Effect level, S. aureus [8]: 2 | Effect level, S. zooepidemicus [9]: 2 | Effect level, E. coli [5]: 3 | Effect level [6]: 3 | Effect level, K. pneumoniae [7]: 2 | inhibition at 10 µM [3, 14]: 6 ± 4% | inhibition at 1 µM [3, 15]: 0% | Effect level, S. maltophila [10]: 2

Oc1cc(I)c(F)cc1F [sr7618]
Effect level [6]: 2
